{"source": "paper PMC8799717", "about": "“Pharmacological targeting PIKfyve and tubulin as an effective treatment strategy for double-hit lymphoma” (Cell Death Discovery, 2022)", "assay_in_all_cases": "biochemical", "parameters_in_all_cases": "KINOMEscan active-site-directed competition binding panel, 468 kinases, percent of DMSO control at 1 uM", "conditions_in_all_cases": "KINOMEscan binding, percent of DMSO control; read-out: Ctrl%", "key": {"EPHB3": {"target": "EPHB3 (Homo sapiens, UniProt P54753)"}, "GRK4": {"target": "GRK4 (Homo sapiens, UniProt P32298)", "sequence (P32298 whole entry)": "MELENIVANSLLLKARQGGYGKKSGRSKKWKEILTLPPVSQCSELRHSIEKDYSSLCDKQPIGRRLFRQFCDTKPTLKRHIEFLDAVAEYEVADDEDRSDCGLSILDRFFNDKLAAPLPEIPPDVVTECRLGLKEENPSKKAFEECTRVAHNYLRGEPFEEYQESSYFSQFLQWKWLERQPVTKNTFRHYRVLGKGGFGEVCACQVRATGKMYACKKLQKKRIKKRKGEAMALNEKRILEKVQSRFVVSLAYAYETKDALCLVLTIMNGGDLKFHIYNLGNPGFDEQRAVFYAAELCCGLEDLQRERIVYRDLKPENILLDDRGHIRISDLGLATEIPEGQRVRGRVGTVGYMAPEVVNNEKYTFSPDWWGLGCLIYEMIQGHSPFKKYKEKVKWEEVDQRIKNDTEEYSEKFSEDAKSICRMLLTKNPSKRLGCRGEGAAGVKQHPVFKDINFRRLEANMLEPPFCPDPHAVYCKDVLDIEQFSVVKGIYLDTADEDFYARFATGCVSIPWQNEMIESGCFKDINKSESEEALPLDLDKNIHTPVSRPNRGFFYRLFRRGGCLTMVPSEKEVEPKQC"}, "PAK7": {"target": "T1, PAK7 (Homo sapiens, UniProt Q9P286)", "T1 construct": "gene PAK5"}, "CSNK1G3": {"target": "CSNK1G3 (Homo sapiens, UniProt Q9Y6M4)", "sequence (Q9Y6M4 whole entry)": "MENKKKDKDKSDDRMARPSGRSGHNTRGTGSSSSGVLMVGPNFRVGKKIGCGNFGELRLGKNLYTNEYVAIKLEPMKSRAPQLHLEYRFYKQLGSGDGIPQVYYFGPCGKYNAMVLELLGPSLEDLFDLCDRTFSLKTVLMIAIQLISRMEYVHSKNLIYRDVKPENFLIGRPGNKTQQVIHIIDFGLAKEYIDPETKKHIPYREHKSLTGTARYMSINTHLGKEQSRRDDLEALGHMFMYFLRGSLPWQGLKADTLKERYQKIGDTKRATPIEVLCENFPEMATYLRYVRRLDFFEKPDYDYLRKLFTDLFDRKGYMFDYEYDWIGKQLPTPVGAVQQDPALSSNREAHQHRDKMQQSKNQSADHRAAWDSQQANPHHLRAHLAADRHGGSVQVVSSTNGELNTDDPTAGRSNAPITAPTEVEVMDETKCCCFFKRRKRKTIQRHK"}, "CDKL3": {"target": "CDKL3 (Homo sapiens, UniProt Q8IVW4)"}, "DCAMKL1": {"target": "T2, DCAMKL1 (Homo sapiens, UniProt O15075)", "T2 construct": "gene DCLK1"}, "EPHA1": {"target": "EPHA1 (Homo sapiens, UniProt P21709)"}, "CDK5": {"target": "CDK5 (Homo sapiens, UniProt Q00535)"}, "[1]": {"target": "T3, RSK2(Kin.Dom.1-N-terminal) (Homo sapiens, UniProt P51812)", "T3 construct": "gene RPS6KA3; Kin.Dom.1-N-terminal"}, "PIK3CA(C420R)": {"target": "PIK3CA(C420R) (Homo sapiens, UniProt P42336, C420R)", "sequence (P42336 whole entry C420R)": "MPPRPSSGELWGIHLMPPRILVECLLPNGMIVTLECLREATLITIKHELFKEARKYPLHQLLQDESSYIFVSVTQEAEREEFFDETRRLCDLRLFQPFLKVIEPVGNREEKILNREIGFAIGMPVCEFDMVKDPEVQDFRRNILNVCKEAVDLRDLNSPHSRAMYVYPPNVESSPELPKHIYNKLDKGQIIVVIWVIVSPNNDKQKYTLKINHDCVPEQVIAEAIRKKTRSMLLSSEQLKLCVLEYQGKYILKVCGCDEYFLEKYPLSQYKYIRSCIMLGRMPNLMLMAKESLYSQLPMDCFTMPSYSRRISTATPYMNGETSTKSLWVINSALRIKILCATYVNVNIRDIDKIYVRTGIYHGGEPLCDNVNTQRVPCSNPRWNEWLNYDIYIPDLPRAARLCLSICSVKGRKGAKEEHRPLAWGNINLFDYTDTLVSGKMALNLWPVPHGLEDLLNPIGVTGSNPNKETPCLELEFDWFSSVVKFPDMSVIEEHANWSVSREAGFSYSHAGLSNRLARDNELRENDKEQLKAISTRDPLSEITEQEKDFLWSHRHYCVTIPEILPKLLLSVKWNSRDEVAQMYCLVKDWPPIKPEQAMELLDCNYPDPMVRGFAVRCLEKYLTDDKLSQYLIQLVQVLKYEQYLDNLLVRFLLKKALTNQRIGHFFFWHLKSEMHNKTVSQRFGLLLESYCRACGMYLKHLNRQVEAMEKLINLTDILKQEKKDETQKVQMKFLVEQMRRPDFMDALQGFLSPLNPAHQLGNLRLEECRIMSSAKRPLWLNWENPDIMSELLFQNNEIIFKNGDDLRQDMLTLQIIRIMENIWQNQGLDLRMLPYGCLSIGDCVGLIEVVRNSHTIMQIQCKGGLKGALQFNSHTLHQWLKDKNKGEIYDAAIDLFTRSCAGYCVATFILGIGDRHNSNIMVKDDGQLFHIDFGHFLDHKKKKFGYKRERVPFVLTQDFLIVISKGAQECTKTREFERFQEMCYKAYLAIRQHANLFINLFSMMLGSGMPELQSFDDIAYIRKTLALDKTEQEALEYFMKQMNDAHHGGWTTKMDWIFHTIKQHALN"}, "PAK6": {"target": "PAK6 (Homo sapiens, UniProt Q9NQU5)", "sequence (Q9NQU5 whole entry)": "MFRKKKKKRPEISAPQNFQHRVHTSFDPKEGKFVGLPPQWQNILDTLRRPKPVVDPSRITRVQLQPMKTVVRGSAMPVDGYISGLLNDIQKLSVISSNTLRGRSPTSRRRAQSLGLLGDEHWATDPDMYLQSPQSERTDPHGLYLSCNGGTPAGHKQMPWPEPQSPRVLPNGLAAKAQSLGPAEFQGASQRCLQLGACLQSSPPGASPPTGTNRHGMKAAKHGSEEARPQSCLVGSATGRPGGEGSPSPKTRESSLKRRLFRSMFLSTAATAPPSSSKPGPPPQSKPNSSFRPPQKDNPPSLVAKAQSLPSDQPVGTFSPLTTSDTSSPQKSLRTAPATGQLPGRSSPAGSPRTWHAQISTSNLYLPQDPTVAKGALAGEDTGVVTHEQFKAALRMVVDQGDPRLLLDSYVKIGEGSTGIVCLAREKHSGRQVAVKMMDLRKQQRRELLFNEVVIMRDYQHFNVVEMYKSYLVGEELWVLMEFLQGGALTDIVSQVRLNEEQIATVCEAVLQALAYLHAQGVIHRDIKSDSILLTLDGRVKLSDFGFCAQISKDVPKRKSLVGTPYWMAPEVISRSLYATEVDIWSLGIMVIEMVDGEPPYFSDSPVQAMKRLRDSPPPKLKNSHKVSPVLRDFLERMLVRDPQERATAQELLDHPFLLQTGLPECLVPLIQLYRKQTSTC"}, "PIM1": {"target": "PIM1 (Homo sapiens, UniProt P11309)"}, "MUSK": {"target": "MUSK (Homo sapiens, UniProt O15146)"}, "ITK": {"target": "ITK (Homo sapiens, UniProt Q08881)"}, "GRK1": {"target": "GRK1 (Homo sapiens, UniProt Q15835)", "sequence (Q15835 whole entry)": "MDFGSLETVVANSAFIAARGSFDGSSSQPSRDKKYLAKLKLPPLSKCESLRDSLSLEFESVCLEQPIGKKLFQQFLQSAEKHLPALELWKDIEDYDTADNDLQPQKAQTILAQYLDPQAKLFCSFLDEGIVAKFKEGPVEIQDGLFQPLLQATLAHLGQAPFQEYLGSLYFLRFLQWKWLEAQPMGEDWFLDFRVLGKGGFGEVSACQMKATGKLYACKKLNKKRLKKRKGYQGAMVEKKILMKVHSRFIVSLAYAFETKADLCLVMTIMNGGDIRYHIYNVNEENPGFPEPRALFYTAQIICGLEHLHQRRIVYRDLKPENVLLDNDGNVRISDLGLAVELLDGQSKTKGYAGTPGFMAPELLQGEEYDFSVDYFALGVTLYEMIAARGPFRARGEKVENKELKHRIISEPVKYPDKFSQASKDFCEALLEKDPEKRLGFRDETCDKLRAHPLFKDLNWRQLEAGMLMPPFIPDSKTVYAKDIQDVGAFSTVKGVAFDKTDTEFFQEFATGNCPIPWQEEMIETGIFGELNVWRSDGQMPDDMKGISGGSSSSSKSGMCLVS"}, "HPK1": {"target": "T4, HPK1 (Homo sapiens, UniProt Q92918)", "T4 construct": "gene MAP4K1"}, "YANK1": {"target": "T5, YANK1 (Homo sapiens, UniProt Q8WU08)", "T5 construct": "gene STK32A"}, "MEK5": {"target": "T6, MEK5 (Homo sapiens, UniProt Q13163)", "T6 construct": "gene MAP2K5"}, "FLT3(D835V)": {"target": "FLT3(D835V) (Homo sapiens, UniProt P36888, D835V)"}, "MAP4K5": {"target": "MAP4K5 (Homo sapiens, UniProt Q9Y4K4)"}, "DAPK2": {"target": "DAPK2 (Homo sapiens, UniProt Q9UIK4)", "sequence (Q9UIK4 whole entry)": "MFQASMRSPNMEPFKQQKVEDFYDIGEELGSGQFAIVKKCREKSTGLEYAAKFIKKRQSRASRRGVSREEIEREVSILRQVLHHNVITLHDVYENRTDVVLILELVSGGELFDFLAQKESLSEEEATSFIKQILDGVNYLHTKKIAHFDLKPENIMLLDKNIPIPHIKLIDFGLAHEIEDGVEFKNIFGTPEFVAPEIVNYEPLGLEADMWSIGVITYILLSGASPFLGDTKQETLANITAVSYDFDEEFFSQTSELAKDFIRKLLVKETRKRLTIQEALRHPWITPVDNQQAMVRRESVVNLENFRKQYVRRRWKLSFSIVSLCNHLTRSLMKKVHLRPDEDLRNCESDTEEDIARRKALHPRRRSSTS"}, "STK36": {"target": "STK36 (Homo sapiens, UniProt Q9NRP7)", "sequence (Q9NRP7 whole entry)": "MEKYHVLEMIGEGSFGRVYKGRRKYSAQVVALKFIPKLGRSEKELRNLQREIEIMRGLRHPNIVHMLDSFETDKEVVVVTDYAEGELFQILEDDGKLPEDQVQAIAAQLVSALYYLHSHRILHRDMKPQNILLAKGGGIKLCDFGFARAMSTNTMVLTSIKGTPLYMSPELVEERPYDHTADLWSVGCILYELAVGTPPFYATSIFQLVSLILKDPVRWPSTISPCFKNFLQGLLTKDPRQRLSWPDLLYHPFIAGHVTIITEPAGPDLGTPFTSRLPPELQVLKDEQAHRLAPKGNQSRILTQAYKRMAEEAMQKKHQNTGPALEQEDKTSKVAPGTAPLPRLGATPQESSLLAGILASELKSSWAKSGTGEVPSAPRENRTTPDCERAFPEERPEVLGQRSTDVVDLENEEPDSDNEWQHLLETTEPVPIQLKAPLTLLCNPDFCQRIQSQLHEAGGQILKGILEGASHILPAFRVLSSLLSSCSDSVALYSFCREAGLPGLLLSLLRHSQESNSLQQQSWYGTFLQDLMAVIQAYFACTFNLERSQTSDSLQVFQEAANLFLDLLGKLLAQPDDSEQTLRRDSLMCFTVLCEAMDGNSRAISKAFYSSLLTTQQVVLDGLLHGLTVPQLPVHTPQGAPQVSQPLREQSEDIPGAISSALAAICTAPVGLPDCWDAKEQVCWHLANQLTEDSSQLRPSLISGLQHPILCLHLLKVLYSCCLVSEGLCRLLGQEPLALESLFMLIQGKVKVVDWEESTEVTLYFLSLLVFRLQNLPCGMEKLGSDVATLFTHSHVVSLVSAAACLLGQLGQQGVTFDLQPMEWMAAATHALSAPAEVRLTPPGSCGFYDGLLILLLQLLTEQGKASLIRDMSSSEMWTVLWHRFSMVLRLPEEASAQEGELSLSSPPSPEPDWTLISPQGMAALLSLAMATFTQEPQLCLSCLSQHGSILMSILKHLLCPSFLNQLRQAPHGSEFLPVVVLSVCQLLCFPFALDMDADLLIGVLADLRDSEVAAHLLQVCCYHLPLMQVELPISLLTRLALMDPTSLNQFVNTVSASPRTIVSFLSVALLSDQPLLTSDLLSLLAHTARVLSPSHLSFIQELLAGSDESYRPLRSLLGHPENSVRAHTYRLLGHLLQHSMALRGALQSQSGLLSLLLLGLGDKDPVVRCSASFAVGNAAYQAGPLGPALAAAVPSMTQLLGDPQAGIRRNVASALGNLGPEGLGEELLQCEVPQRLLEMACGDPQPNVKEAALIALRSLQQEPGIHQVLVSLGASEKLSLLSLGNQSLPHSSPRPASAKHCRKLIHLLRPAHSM"}, "PDGFRA": {"target": "PDGFRA (Homo sapiens, UniProt P16234)"}, "KIT(D816H)": {"target": "KIT(D816H) (Homo sapiens, UniProt P10721, D816H)"}}}
{"smiles": "Cc1ccc(NC(=O)c2cccc(C(F)(F)F)c2)cc1Nc1cc(-c2cccnc2)nc2[nH]ccc12", "note": "[HZX-02-059]", "values": [{"measurement": "remaining binding at 1 µM", "setting": "EPHB3", "result": 48, "unit": "%"}, {"measurement": "remaining binding at 1 µM", "setting": "GRK4", "result": 83, "unit": "%"}, {"measurement": "remaining binding at 1 µM", "setting": "PAK7", "result": 65, "unit": "%"}, {"measurement": "remaining binding at 1 µM", "setting": "CSNK1G3", "result": 100, "unit": "%"}, {"measurement": "remaining binding at 1 µM", "setting": "CDKL3", "result": 84, "unit": "%"}, {"measurement": "remaining binding at 1 µM", "setting": "DCAMKL1", "result": 93, "unit": "%"}, {"measurement": "remaining binding at 1 µM", "setting": "EPHA1", "result": 78, "unit": "%"}, {"measurement": "remaining binding at 1 µM", "setting": "CDK5", "result": 100, "unit": "%"}, {"measurement": "remaining binding at 1 µM", "setting": "[1]", "result": 78, "unit": "%"}, {"measurement": "remaining binding at 1 µM", "setting": "PIK3CA(C420R)", "result": 100, "unit": "%"}, {"measurement": "remaining binding at 1 µM", "setting": "PAK6", "result": 100, "unit": "%"}, {"measurement": "remaining binding at 1 µM", "setting": "PIM1", "result": 92, "unit": "%"}, {"measurement": "remaining binding at 1 µM", "setting": "MUSK", "result": 100, "unit": "%"}, {"measurement": "remaining binding at 1 µM", "setting": "ITK", "result": 100, "unit": "%"}, {"measurement": "remaining binding at 1 µM", "setting": "GRK1", "result": 77, "unit": "%"}, {"measurement": "remaining binding at 1 µM", "setting": "HPK1", "result": 72, "unit": "%"}, {"measurement": "remaining binding at 1 µM", "setting": "YANK1", "result": 92, "unit": "%"}, {"measurement": "remaining binding at 1 µM", "setting": "MEK5", "result": 83, "unit": "%"}, {"measurement": "remaining binding at 1 µM", "setting": "FLT3(D835V)", "result": 100, "unit": "%"}, {"measurement": "remaining binding at 1 µM", "setting": "MAP4K5", "result": 73, "unit": "%"}, {"measurement": "remaining binding at 1 µM", "setting": "DAPK2", "result": 100, "unit": "%"}, {"measurement": "remaining binding at 1 µM", "setting": "STK36", "result": 89, "unit": "%"}, {"measurement": "remaining binding at 1 µM", "setting": "PDGFRA", "result": 66, "unit": "%"}, {"measurement": "remaining binding at 1 µM", "setting": "KIT(D816H)", "result": 100, "unit": "%"}]}
